{"source": "patent US6723527B2", "about": "“Methods for determining toxicity reversing agents” (Board of Regents, The University of Texas System, priority 2001, dated 2004)", "format_in_all_cases": "cell-based", "key": {"[1]": {"tested_on": "human peripheral blood lymphocytes", "assay": "lymphocyte growth inhibition assay ([3H]-thymidine incorporation) in chemically defined medium", "settings": "for IC50: Homo sapiens, Lymphocyte, read-out: Amount Required to Inhibit Growth by 50%", "description": "The medium is also described in the specification above. Various concentrations of amino acids can be used in the medium to determine the effect on growth or growth inhibition.\nHuman peripheral blood was collected from a group of patients in the clinic. […] Experiments were conducted in 96 well microtite plates. Triplicate samples were run in all experiments. […] For reversal of toxicity CoQ10 was added at a concentration of 0.5 μg/ml, and the patient's own plasma at a concentration of 0.1%. All chemicals were obtained from Sigma Chemical Corporation. […] Cells were then pulsed with 10 μl [^3H]-thymidine (0.29×10^-6M final concentration; specific activity […]). Twenty-four hours later, cells were harvested using an Inotech Cell Harvester. Radioactive incorporation was measured using a Packard Matrix 96 Beta Counter."}, "human lymphocytes": {"tested_on": "human lymphocytes", "assay": "lymphocyte response to varied culture medium components", "description": "Culture medium suitable for the growth of human lymphocytes is prepared as follows: To 50 ml of medium buffer 72 mg glucose is added, 1 ml amino acid supplement, 1 ml of a 16.5 mg/ml pyruvate: 2.64 mg/ml cysteine solution, 1 ml of a 1.4 mg/ml choline chloride; 1.8 mg/ml inositol solution, 1 ml of the above indicated vitamin supplement, and 1 ml of a 135 μg/ml adenine solution. The pH is adjusted with dilute NaOH to 7.6. Supplements of the following are then added: 1 ml of the antibiotic supplement, 0.5 ml of a 22.2 mg/ml calcium chloride solution, 0.5 ml of a 24 mg/ml magnesium sulfate solution, 1 ml of a solution of 0.278 mg/ml ferrous sulfate in 0.149 mg/ml EDTA. Deionized water is added to a final volume of 100 ml and the medium is filtered through Nalgene membrane filter units for sterilization. After filtration 0.2 ml of a 1 mg/ml sterile solution of phytohemagglutinin (PHA) is added to each 100 ml of media. PHA is obtained from Sigma Chemical Co. in 5 mg quantities and is diluted with sterile, deionized water.\nAccordingly, a culture medium suitable for determining the growth or other responses of lymphocytes comprises a serum-free, buffered (pH 7.6) solution in deionized water comprises per liter of solution the following components as described in Table 1:\nThe components of the culture medium of Table 1 can be varied. In general, effective amounts of the components are used and can vary widely for the various growth assays of the invention and for individual patients. An effective amount of a component, as used herein, is an amount which will obtain a desired response from the patient. […] For most patients and assays the following ranges of components are satisfactory. The precise amounts of the components to provide an effective response can be determined by simple experimentation with the culture medium.\nThe following is an example of a lymphocyte assay: Previously sterilized 96 well microtiter plates (Corning) are used in this assay procedure. 0.2 milliliters of the culture medium is added to each well. Where necessary, variable supplements up to 10 μl may be added to each tube, or a smaller volume of an appropriately higher concentration of the medium can be added to the tubes and supplements then added to make a final volume of 0.2 ml. The assay is then inoculated with 10 μl of the diluted lymphocyte suspension (22,000 lymphocytes).\nIncubation. The plates are incubated for 4 days at 37° C. in a 5% carbon dioxide atmosphere saturated with water vapor. […]\nHarvesting. […] The filter papers are dried for 5 minutes in a drying oven at 120° C. and then counted on a Matrix 96 Beta Counter (Packard)."}, "[2]": {"tested_on": "human peripheral blood lymphocytes", "assay": "reversal of Lipitor (statin) toxicity in the lymphocyte culture assay", "settings": "Lipitor present; CoQ10 0.5 μg/ml, patient's own plasma 0.1%; all subjects", "from_the_text": "The present invention also provides a composition comprised in the plasma that has the ability to ameliorate the toxicity of metabolic inhibitors such as the statins. […] It is contemplated that the plasma composition may comprise at least one peptide, a polypeptide, a protein or a small molecule which is associated with or bound to at least one peptide, polypeptide, or protein. The plasma composition may also comprise a lipid moiety, and/or a carbohydrate moiety and/or a nucleic acid component. As the plasma composition is heat-labile, it is contemplated to comprise at least one heat-labile peptide, polypeptide, or protein that may additionally be associated with or bound to at least one small molecule which may be a lipid moiety, and/or a carbohydrate moiety and/or a nucleic acid moiety.\nThe medium used in this study was the same as described previously (See U.S. Pat. No. 4,499,064, herein expressly incorporated by reference) except that the concentration the amino acids used was increased five fold. The medium is also described in the specification above. […]\nHuman peripheral blood was collected from a group of patients in the clinic. Lymphocytes were isolated as described (Shive, 1986), counted in a Coulter Counter, and inoculated into the medium at a concentration of 110,000 cells per ml. […] Radioactive incorporation was measured using a Packard Matrix 96 Beta Counter. […]"}, "[3]": {"settings": "patients' lymphocytes, 4 days incubation then 24 h [3H]-thymidine pulse"}, "[4]": {"settings": "at concentrations of up to 0.2 mg/ml"}}, "note": "Read-outs that look alike come from different tables or passages of the source."}
{"smiles": "CCCC(CCC)C(=O)O", "note": "[Valproic Acid (Depakote), Valproic Acid]", "values": [{"measurement": "IC50", "setting": "[1]; patients' lymphocytes, 4 days incubation then 24 h [3H]-thymidine pulse, unit printed μg/ml", "value": "0.4 to 1.2", "unit": "µg/mL"}]}
{"smiles": "Cn1c(=O)c2[nH]cnc2n(C)c1=O", "note": "[Theophyline]", "values": [{"measurement": "IC50", "setting": "[1]; [3]", "value": 30, "unit": "µg/mL"}]}
{"smiles": "CC(=O)C(=O)O", "note": "[Pyruvate]", "values": [{"measurement": "concentration in culture medium that is toxic to lymphocytes", "setting": "human lymphocytes; human, 4 days, pH 7.6", "value": 1650, "unit": "µg/mL"}]}
{"smiles": "O[C@H]1[C@H](O)[C@@H](O)[C@H](O)[C@@H](O)[C@H]1O", "note": "[Inositol]", "values": [{"measurement": "Emax at 0.018 µg/mL", "setting": "human lymphocytes; Homo sapiens, Lymphocyte, inositol 0.018 mg/l in medium, read-out: lymphocyte response, % of maximal response", "value": "~70", "unit": "%"}, {"measurement": "Emax at 0.18 µg/mL", "setting": "human lymphocytes; Homo sapiens, Lymphocyte, inositol 0.18 mg/l in medium, read-out: lymphocyte response, % of maximal response", "value": "90 to 100", "unit": "%"}]}
{"smiles": "CC(C)c1c(C(=O)Nc2ccccc2)c(-c2ccccc2)c(-c2ccc(F)cc2)n1CC[C@@H](O)C[C@@H](O)CC(=O)O", "note": "[Lipitor, Atorvastatin]", "values": [{"measurement": "IC50", "setting": "[1]; [3]", "value": "< 0.1", "unit": "µg/mL"}]}
{"smiles": "NNC(=O)c1ccncc1", "note": "[Isoniazid]", "values": [{"measurement": "IC50", "setting": "[1]; [3]", "value": 548, "unit": "µg/mL"}]}
{"smiles": "COC1=C(OC)C(=O)C(C/C=C(\\C)CC/C=C(\\C)CC/C=C(\\C)CC/C=C(\\C)CC/C=C(\\C)CC/C=C(\\C)CC/C=C(\\C)CC/C=C(\\C)CC/C=C(\\C)CCC=C(C)C)=C(C)C1=O", "note": "[CoQ10, Co enzyme Q10]", "values": [{"measurement": "reversal of Lipitor toxicity", "setting": "[2]", "value": "offers some protection, but it is not totally effective alone"}]}
{"smiles": "Cn1c(=O)c2c(ncn2C)n(C)c1=O", "note": "[Caffeine]", "values": [{"measurement": "IC50", "setting": "[1]; [3]", "value": 77.6, "unit": "µg/mL"}]}
{"smiles": "N[C@@H](CCC(=O)O)C(=O)[O-].[Na+]", "note": "[Monosodium Glutamate]", "values": [{"measurement": "IC50", "setting": "[1]", "value": 7500, "unit": "µg/mL"}]}
{"smiles": "Cc1nnc2n1-c1ccc(Cl)cc1C(c1ccccc1Cl)=NC2", "note": "[triazolam]", "values": [{"measurement": "toxicity in lymphocytes", "setting": "[1]", "value": "did not show toxicity"}]}
{"smiles": "[Al]", "note": "[Aluminum]", "values": [{"measurement": "Amount Required to Inhibit Growth by 50%", "setting": "[1]; [3]", "value": 0.005, "unit": "mg/mL"}]}
{"smiles": "CN(Cc1cnc2nc(N)nc(N)c2n1)c1ccc(C(=O)N[C@@H](CCC(=O)O)C(=O)O)cc1", "note": "[Methothrexate]", "values": [{"measurement": "Amount Required to Inhibit Growth by 50%", "setting": "[1]; [3]", "value": "<0.00002", "unit": "mg/mL"}]}
{"smiles": "CC1=C(/C=C/C(C)=C/C=C/C(C)=C/CO)C(C)(C)CCC1", "note": "[Retanol]", "values": [{"measurement": "IC50", "setting": "[1]; [3]", "value": 0.5, "unit": "µg/mL"}]}
{"smiles": "O=C(O)c1ccccc1O", "note": "[Salicylate]", "values": [{"measurement": "Amount Required to Inhibit Growth by 50%", "setting": "[1]; [3]", "value": 0.005, "unit": "mg/mL"}]}
{"smiles": "CCC(C)(C)C(=O)O[C@H]1C[C@@H](C)C=C2C=C[C@H](C)[C@H](CC[C@@H]3C[C@@H](O)CC(=O)O3)[C@H]21", "note": "[Zocor, Simvastatin]", "values": [{"measurement": "IC50", "setting": "[1]; [3]", "value": "< 0.1", "unit": "µg/mL"}]}
{"smiles": "NCC1(CC(=O)O)CCCCC1", "note": "[neuronton]", "values": [{"measurement": "toxicity in lymphocytes", "setting": "[1]; [4]", "value": "did not show toxicity"}]}
{"smiles": "CC[C@H](C)C(=O)O[C@H]1C[C@@H](C)C=C2C=C[C@H](C)[C@H](CC[C@@H]3C[C@@H](O)CC(=O)O3)[C@H]21", "note": "[Mevacor, Lovastatin]", "values": [{"measurement": "IC50", "setting": "[1]; [3]", "value": "< 0.1", "unit": "µg/mL"}]}
{"smiles": "CCC1(c2ccccc2)C(=O)NC(=O)NC1=O", "note": "[phenobarbitol]", "values": [{"measurement": "toxicity in lymphocytes", "setting": "[1]", "value": "did not show toxicity"}]}
{"smiles": "CCO", "note": "[Ethanol]", "values": [{"measurement": "IC50", "setting": "[1]; [3]", "value": 10000, "unit": "µg/mL"}]}
{"smiles": "CN1C(=O)CN=C(c2ccccc2)c2cc(Cl)ccc21", "note": "[Diazepam]", "values": [{"measurement": "IC50", "setting": "[1]", "value": 20, "unit": "µg/mL"}]}
{"smiles": "CC[C@H](C)C(=O)O[C@H]1C[C@H](O)C=C2C=C[C@H](C)[C@H](CC[C@@H](O)C[C@@H](O)CC(=O)O)[C@H]21", "note": "[Pravachol, Pravastatin sodium]", "values": [{"measurement": "IC50", "setting": "[1]; [3]", "value": "< 0.1", "unit": "µg/mL"}]}
{"smiles": "Nc1ncnc2nc[nH]c12", "note": "[Adenine]", "values": [{"measurement": "concentration in culture medium that is toxic to lymphocytes", "setting": "human lymphocytes; medium of Table 1, component varied", "value": 135, "unit": "µg/mL"}]}
{"smiles": "N[C@H]1C(O)O[C@H](CO)[C@@H](O)[C@@H]1O", "note": "(stereo partly drawn) [glucoseamine]", "values": [{"measurement": "toxicity in lymphocytes", "setting": "[1]; [4]", "value": "did not show toxicity"}]}
